From US8236822B2, “Compounds as cannabinoid receptor ligands” (Abbott Laboratories, priority 2009, dated 2012)
pKi: −log10 of the molar value. Where two headings read alike, the source gives them in different places.

Key:
rat CB2 receptors = biological target: T1, rat CB2 receptors (Rattus norvegicus, UniProt Q9QZN9); experiment: rat CB2 radioligand binding assay ([3H]CP-55,940 competition)
T1 construct: expressed in transfected cells; host or cells: HEK293
T1 sequence (Q9QZN9 1-360): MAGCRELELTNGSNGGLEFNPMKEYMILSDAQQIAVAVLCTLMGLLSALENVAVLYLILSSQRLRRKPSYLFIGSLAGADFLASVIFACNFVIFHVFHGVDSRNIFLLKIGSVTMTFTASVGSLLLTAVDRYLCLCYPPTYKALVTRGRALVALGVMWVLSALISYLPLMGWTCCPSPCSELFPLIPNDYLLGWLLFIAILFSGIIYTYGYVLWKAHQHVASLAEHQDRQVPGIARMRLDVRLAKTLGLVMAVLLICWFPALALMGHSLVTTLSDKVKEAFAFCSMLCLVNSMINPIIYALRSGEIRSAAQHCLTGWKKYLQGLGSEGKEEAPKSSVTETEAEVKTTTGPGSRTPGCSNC
Description: (§1) In Vitro Methods—CB2 and CB1Radioligand Binding Assays:
(§2) The CB1 and CB2 radioligand binding assays described herein are utilized to ascertain the selectivity of compounds of the present application for binding to CB2 relative to CB′ receptors.
(§3) HEK293 cells stably expressing rat CB2 receptors were grown until a confluent monolayer was formed. Briefly, the cells were harvested and homogenized in TE buffer (50 mM Tris-HCl, 1 mM MgCl2, and 1 mM EDTA) using a polytron for 2×10 second bursts in the presence of protease inhibitors, followed by centrifugation at 45,000×g for 20 minutes. The final membrane pellet was re-homogenized in storage buffer (50 mM Tris-HCl, 1 mM MgCl2, and 1 mM EDTA and 10% sucrose) and frozen at −78° C. until used. Saturation binding reactions were initiated by the addition of membrane preparation (protein concentration of 20 μg/well for rat CB2) into wells of a deep well plate containing [^3H]CP-55,940 (120 Ci/mmol, a nonselective CB agonist commercially available from Tocris) in assay buffer (50 mM Tris, 2.5 mM EDTA, 5 mM MgCl2, and 0.5 mg/mL fatty acid free BSA, pH 7.4). After 45 min incubation at 30° C., binding reaction was terminated by the addition of 300 μL/well of cold assay buffer followed by rapid vacuum filtration through a UniFilter-96 GF/C filter plates (pre-soaked in 1 mg/mL BSA for 2 hours). The bound activity was counted in a TopCount using Microscint-20. Saturation experiments were conducted with twelve concentrations of [^3H]CP-55,940 ranging from 0.01 to 8 nM. Competition experiments were conducted with 0.5 nM [^3H]CP-55,940 and five concentrations of displacing ligands selected from the range of 0.01 nM to 10 μM. The addition of 10 μM unlabeled CP-55,940 (Tocris, Ellisville, Mo.) was used to assess nonspecific binding.

human CB2 receptors = biological target: T2, human CB2 receptors (Homo sapiens, UniProt P34972); experiment: human CB2 radioligand binding assay ([3H]CP-55,940 competition)
T2 construct: expressed in transfected cells; host or cells: HEK293
Description: as §1, §2
as §3, with “expressing human” for “expressing rat”, “of 5” for “of 20”, “for human” for “for rat”, “After 90” for “After 45”, “concentrations (0.01” for “concentrations of displacing ligands selected from the range of 0.01”, “10 μM) of displacing ligands.” for “10 μM.”

T2 sequence (P34972 whole entry): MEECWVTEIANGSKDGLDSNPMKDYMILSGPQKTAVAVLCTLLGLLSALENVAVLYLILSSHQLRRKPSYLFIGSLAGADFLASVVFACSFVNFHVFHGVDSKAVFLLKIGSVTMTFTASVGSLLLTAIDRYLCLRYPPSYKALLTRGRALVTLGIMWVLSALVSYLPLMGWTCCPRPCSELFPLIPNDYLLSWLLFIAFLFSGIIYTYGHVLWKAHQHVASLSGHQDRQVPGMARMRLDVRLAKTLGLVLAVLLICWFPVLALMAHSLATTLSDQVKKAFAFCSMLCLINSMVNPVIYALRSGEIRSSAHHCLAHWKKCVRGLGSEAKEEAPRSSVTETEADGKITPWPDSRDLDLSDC

SMILES	pKi (rat CB2 receptors; HEK293 membranes expressing rat CB2, 0.5 nM [3H]CP-55,940, read-out: rat CB2 binding (Ki))	pKi (rat CB2 receptors)	pKi (human CB2 receptors)
CCCCn1/c(=N/C(=O)c2cc(C(F)(F)F)ccc2OCCNC(C)(C)C)cc(C(C)(C)C)n1C [Example 4, 2-[2-(tert-butylamino)ethoxy]-N-[(3E)-2-butyl-5-tert-butyl-1-methyl-1,2-dihydro-3H-pyrazol-3-ylidene]-5-(trifluoromethyl)benzamide]	6.98	–	–
Cn1c(C(C)(C)C)c/c(=N\C(=O)c2cc(C(F)(F)F)ccc2OC2CN(C(C)(C)C)C2)n1CC1CC1 [Example 2, 2-[(1-tert-butylazetidin-3-yl)oxy]-N-[(3E)-5-tert-butyl-2-(cyclopropylmethyl)-1-methyl-1,2-dihydro-3H-pyrazol-3-ylidene]-5-(trifluoromethyl)benzamide]	–	6.34	–
Cn1c(C(C)(C)C)c/c(=N\C(=O)c2cc(C(F)(F)F)ccc2OCCNC(C)(C)C)n1CC1CCC1 [Example 5, 2-[2-(tert-butylamino)ethoxy]-N-[(3E)-5-tert-butyl-2-(cyclobutylmethyl)-1-methyl-1,2-dihydro-3H-pyrazol-3-ylidene]-5-(trifluoromethyl)benzamide]	–	–	6.70
Cn1c(C(C)(C)C)c/c(=N\C(=O)c2cc(C(F)(F)F)ccc2OCCNC(C)(C)C)n1CC1CC1 [Example 1, 2-[2-(tert-butylamino)ethoxy]-N-[(3E)-5-tert-butyl-2-(cyclopropylmethyl)-1-methyl-1,2-dihydro-3H-pyrazol-3-ylidene]-5-(trifluoromethyl)benzamide]	–	7.35	6.91
CCCCn1nc(C(C)(C)C)s/c1=N\C(=O)c1cc(C(F)(F)F)ccc1OC1CN(C(C)(C)C)C1 [Example 3, 2-[(1-tert-butylazetidin-3-yl)oxy]-N-[(2Z)-3-butyl-5-tert-butyl-1,3,4-thiadiazol-2(3H)-ylidene]-5-(trifluoromethyl)benzamide]	–	7.54	7.33
CN1CC[C@H](Oc2ccc(C(F)(F)F)cc2C(=O)/N=c2\cc(C(C)(C)C)n(C)n2CC2CCC2)C1 [Example 6, N-[(3E)-5-tert-butyl-2-(cyclobutylmethyl)-1-methyl-1,2-dihydro-3H-pyrazol-3-ylidene]-2-{[(3S)-1-methylpyrrolidin-3-yl]oxy}-5-(trifluoromethyl)benzamide]	–	6.38	–
